What was measured:
[1] = system: MM.1S; assay: Cell viability assay (CellTiter-Meiluncell Luminescent), tumor cell proliferation, MM.1S; details: Homo sapiens, MM1.S, 96 h, read-out: inhibitory activity (IC50, nM) against tumor cells proliferation, MM.1S
[2] = target: T1, IKZF1 (Homo sapiens, UniProt Q13422+Q96SW2); assay: Western-blot assay, substrate protein degradation in hPBMCs: IKZF1; assay type: cell-based; details: compounds at 50 nM and 500 nM, 24 hours
T1 construct: effects of the compounds of the present disclosure on the expression of target proteins in cells; endogenous in cells; host or cells: human PBMCs (hPBMCs)

[3] = target: T2, IKZF3 (Homo sapiens, UniProt Q96SW2+Q9UKT9); assay: Western-blot assay, substrate protein degradation in hPBMCs: IKZF3; assay type: cell-based; details: compounds at 50 nM and 500 nM, 24 hours
T2 construct: effects of the compounds of the present disclosure on the expression of target proteins in cells; endogenous in cells; host or cells: human PBMCs (hPBMCs)

[4] = target: T3, GSPT1 (Homo sapiens, UniProt P15170+Q96SW2); assay: Western-blot assay, substrate protein degradation in hPBMCs: GSPT1; assay type: cell-based; details: compounds at 50 nM and 500 nM, 24 hours
T3 construct: effects of the compounds of the present disclosure on the expression of target proteins in cells; endogenous in cells; host or cells: human PBMCs (hPBMCs)

[5] = target: T4, IKZF2 (Homo sapiens, UniProt Q96SW2+Q9UKS7); assay: Western-blot assay, substrate protein degradation in hPBMCs: IKZF2; assay type: cell-based; details: compounds at 50 nM and 500 nM, 24 hours
T4 construct: effects of the compounds of the present disclosure on the expression of target proteins in cells; endogenous in cells; host or cells: human PBMCs (hPBMCs)

[6] = target: T5, WEE1 (Homo sapiens, UniProt P30291+Q96SW2); assay: Western-blot assay, substrate protein degradation in hPBMCs: WEE1; assay type: cell-based; details: compounds at 50 nM and 500 nM, 24 hours
T5 construct: effects of the compounds of the present disclosure on the expression of target proteins in cells; endogenous in cells; host or cells: human PBMCs (hPBMCs)

[7] = target: T6, CK1α (Homo sapiens, UniProt P48729+Q96SW2); assay: Western-blot assay, substrate protein degradation in hPBMCs: CK1α; assay type: cell-based; details: compounds at 50 nM and 500 nM, 24 hours
T6 construct: effects of the compounds of the present disclosure on the expression of target proteins in cells; endogenous in cells; host or cells: human PBMCs (hPBMCs)
T6 sequence (P48729 whole entry): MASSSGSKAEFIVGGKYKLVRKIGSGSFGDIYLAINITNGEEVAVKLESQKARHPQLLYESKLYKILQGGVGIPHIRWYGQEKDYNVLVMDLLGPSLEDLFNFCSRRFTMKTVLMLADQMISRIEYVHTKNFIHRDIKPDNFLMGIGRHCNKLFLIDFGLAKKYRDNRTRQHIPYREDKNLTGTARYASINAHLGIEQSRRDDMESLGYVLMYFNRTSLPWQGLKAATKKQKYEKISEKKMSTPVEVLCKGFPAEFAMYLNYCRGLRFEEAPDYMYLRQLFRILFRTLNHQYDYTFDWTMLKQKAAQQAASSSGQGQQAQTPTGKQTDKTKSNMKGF
T6 sequence (Q96SW2 whole entry): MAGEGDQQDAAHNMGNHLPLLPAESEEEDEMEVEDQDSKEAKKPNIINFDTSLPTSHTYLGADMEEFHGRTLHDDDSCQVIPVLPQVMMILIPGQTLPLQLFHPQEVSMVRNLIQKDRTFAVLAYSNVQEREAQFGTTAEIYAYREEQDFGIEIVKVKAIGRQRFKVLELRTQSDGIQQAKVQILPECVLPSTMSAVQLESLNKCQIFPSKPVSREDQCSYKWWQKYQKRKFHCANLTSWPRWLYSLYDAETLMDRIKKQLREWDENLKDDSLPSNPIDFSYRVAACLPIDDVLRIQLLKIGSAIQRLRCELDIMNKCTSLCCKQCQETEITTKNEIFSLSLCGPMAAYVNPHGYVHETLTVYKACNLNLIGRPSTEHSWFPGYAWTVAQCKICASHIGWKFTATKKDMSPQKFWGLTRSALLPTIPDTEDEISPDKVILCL
T6 sequence (Q16531 whole entry partner): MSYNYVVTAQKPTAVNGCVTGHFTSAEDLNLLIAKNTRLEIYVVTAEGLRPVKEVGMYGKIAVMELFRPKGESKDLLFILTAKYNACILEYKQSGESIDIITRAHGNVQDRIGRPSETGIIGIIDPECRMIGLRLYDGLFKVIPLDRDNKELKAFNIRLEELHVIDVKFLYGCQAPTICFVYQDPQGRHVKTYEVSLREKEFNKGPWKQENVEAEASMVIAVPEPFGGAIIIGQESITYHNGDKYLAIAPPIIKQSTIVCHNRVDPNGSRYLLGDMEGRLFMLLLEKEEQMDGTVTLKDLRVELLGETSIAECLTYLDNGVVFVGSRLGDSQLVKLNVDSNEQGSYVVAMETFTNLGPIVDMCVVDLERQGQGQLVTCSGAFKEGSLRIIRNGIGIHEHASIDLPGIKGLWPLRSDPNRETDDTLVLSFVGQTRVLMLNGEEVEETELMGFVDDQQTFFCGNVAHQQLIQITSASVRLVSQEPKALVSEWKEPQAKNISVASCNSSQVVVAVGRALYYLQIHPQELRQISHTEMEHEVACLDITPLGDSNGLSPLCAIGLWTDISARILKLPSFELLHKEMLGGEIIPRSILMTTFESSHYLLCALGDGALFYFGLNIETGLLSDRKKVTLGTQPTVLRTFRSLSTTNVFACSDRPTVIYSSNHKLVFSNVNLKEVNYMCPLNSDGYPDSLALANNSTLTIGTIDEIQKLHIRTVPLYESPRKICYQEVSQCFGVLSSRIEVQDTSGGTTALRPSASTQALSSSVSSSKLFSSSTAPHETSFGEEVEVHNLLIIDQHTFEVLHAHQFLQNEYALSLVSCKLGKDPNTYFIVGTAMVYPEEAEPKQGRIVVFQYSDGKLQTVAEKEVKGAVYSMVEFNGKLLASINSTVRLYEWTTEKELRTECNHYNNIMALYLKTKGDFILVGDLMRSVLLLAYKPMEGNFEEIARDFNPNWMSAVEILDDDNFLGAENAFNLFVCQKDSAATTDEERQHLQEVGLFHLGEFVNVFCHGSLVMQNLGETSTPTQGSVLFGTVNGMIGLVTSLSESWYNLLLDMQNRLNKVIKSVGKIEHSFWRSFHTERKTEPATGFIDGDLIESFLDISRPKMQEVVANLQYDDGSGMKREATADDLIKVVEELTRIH

T3 sequence (P15170 whole entry): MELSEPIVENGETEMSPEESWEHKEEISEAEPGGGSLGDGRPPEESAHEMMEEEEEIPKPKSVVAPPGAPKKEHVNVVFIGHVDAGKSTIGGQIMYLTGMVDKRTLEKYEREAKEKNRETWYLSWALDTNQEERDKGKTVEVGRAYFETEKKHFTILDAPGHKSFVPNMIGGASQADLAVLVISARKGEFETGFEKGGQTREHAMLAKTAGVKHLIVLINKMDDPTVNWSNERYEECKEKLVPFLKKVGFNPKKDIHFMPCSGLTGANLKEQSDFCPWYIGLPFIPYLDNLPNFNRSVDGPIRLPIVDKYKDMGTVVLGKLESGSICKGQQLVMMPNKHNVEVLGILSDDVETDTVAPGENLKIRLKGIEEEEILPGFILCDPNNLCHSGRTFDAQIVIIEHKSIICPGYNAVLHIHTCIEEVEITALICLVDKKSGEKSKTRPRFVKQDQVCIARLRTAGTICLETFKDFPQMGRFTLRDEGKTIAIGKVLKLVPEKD
T3 sequence (Q96SW2 whole entry): as the sequence (Q96SW2 whole entry) above
T3 sequence (Q16531 whole entry partner): as the sequence (Q16531 whole entry partner) above
T4 sequence (Q9UKS7 whole entry): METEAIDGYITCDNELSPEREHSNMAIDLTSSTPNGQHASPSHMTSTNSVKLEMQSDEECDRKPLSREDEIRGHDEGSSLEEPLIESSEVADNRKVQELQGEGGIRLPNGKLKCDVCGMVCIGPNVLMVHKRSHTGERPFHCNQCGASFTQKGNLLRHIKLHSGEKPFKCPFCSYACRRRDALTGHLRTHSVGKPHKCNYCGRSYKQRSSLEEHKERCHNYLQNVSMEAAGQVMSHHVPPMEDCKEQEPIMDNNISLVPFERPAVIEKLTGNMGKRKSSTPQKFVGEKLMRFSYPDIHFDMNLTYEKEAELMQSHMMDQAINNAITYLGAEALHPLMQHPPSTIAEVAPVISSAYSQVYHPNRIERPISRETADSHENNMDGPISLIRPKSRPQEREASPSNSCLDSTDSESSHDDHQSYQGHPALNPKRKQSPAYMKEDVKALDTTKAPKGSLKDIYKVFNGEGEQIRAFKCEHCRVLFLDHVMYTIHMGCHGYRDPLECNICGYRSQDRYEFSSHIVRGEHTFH
T4 sequence (Q96SW2 whole entry): as the sequence (Q96SW2 whole entry) above
T4 sequence (Q16531 whole entry partner): as the sequence (Q16531 whole entry partner) above
T2 sequence (Q9UKT9 whole entry): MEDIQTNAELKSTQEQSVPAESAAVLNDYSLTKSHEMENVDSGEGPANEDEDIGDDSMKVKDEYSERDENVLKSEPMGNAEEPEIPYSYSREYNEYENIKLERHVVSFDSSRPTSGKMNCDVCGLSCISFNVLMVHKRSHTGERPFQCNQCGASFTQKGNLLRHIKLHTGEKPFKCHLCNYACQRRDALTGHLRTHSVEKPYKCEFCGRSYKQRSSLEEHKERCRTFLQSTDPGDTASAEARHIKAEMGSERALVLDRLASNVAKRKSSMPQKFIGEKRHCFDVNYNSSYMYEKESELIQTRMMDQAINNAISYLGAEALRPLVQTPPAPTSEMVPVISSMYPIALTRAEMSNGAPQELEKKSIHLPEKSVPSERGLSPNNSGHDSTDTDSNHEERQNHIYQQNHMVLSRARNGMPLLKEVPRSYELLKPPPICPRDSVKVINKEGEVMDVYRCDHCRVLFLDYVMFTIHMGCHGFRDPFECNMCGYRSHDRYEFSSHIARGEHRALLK
T2 sequence (Q96SW2 whole entry): as the sequence (Q96SW2 whole entry) above
T2 sequence (Q16531 whole entry partner): as the sequence (Q16531 whole entry partner) above
T1 sequence (Q13422 whole entry): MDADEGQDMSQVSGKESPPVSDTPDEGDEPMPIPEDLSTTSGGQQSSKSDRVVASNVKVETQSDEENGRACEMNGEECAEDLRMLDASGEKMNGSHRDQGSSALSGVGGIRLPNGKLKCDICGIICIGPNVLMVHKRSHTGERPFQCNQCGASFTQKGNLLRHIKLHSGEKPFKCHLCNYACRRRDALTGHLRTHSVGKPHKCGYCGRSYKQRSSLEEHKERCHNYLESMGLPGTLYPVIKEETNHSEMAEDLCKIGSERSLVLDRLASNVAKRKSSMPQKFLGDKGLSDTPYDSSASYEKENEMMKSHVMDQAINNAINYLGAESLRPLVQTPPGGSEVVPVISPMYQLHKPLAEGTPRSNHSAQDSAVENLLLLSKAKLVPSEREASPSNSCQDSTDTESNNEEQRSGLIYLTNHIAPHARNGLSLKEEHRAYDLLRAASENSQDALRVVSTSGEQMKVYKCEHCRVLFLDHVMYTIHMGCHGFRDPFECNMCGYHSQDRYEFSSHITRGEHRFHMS
T1 sequence (Q96SW2 whole entry): as the sequence (Q96SW2 whole entry) above
T1 sequence (Q16531 whole entry partner): as the sequence (Q16531 whole entry partner) above

SMILES | IC50 [1] | IKZF1 substrate protein remaining % [2] | IKZF3 substrate protein remaining % [3] | GSPT1 substrate protein remaining % [4] | IKZF2 substrate protein remaining % [5] | WEE1 substrate protein remaining % [6] | CK1α substrate protein remaining % [7]
O=C1CCN(N2Cc3cc(CN4CC(N5CCc6cc(F)ccc65)C4)ccc3C2=O)C(=O)N1 [GT-05169, 1-(5-((3-(5-fluoroindolin-1-yl)azetidin-1-yl)methyl)-1-oxoisoindolin-2-yl)dihydropyrimidine-2,4(1H,3H)-dione] | 100 to 300 nM | B ("B" is defined as 80%< substrate protein remaining %≤ 100%) | A ("A" is defined as 0% ≤ substrate protein remaining % ≤ 80%) | A ("A" is defined as 0% ≤ substrate protein remaining % ≤ 80%) | A ("A" is defined as 0% ≤ substrate protein remaining % ≤ 80%) | B ("B" is defined as 80%< substrate protein remaining %≤ 100%) | B ("B" is defined as 80%< substrate protein remaining %≤ 100%)
CC1(C)CCC(CN2CCN(Cc3ccc4c(c3)CN(N3CCC(=O)NC3=O)C4=O)CC2)=C(c2ccc(Cl)cc2)C1 [GT-04944, 1-(5-((4-((4'-chloro-5,5-dimethyl-3,4,5,6-tetrahydro-[1,1'-biphenyl]-2-yl)methyl)piperazin-1-yl)methyl)-1-oxoisoindolin-2-yl)dihydropyrimidine-2,4(1H,3H)-dione] | 500 to 1000 nM | B ("B" is defined as 80%< substrate protein remaining %≤ 100%) | B ("B" is defined as 80%< substrate protein remaining %≤ 100%) | A ("A" is defined as 0% ≤ substrate protein remaining % ≤ 80%) | B ("B" is defined as 80%< substrate protein remaining %≤ 100%) | B ("B" is defined as 80%< substrate protein remaining %≤ 100%) | B ("B" is defined as 80%< substrate protein remaining %≤ 100%)
O=C1CCN(N2Cc3cc(CN4CCN(c5cccc(Cl)n5)CC4)ccc3C2=O)C(=O)N1 [GT-05126, 1-(5-((4-(6-chloropyridin-2-yl)piperazin-1-yl)methyl)-1-oxoisoindolin-2-yl)dihydropyrimidine-2,4(1H,3H)-dione] | 300 to 500 nM | A ("A" is defined as 0% ≤ substrate protein remaining % ≤ 80%) | A ("A" is defined as 0% ≤ substrate protein remaining % ≤ 80%) | A ("A" is defined as 0% ≤ substrate protein remaining % ≤ 80%) | A ("A" is defined as 0% ≤ substrate protein remaining % ≤ 80%) | A ("A" is defined as 0% ≤ substrate protein remaining % ≤ 80%) | A ("A" is defined as 0% ≤ substrate protein remaining % ≤ 80%)
O=C1CCN(N2Cc3cc(CN4CC(=C5CCOc6cc(F)ccc65)C4)ccc3C2=O)C(=O)N1 [GT-05168, 1-(5-((3-(7-fluorochroman-4-ylidene)azetidin-1-yl)methyl)-1-oxoisoindolin-2-yl)dihydropyrimidine-2,4(1H,3H)-dione] | 100 to 300 nM | B ("B" is defined as 80%< substrate protein remaining %≤ 100%) | A ("A" is defined as 0% ≤ substrate protein remaining % ≤ 80%) | A ("A" is defined as 0% ≤ substrate protein remaining % ≤ 80%) | B ("B" is defined as 80%< substrate protein remaining %≤ 100%) | B ("B" is defined as 80%< substrate protein remaining %≤ 100%) | B ("B" is defined as 80%< substrate protein remaining %≤ 100%)
O=C1CCN(N2Cc3cc(CN4CC=C(c5ccnc6cc(F)ccc56)CC4)ccc3C2=O)C(=O)N1 [GT-05166, 1-(5-((4-(7-fluoroquinolin-4-yl)-3,6-dihydropyridin-1(2H)-yl)methyl)-1-oxoisoindolin-2-yl)dihydropyrimidine-2,4(1H,3H)-dione] | 100 to 300 nM | A ("A" is defined as 0% ≤ substrate protein remaining % ≤ 80%) | A ("A" is defined as 0% ≤ substrate protein remaining % ≤ 80%) | A ("A" is defined as 0% ≤ substrate protein remaining % ≤ 80%) | A ("A" is defined as 0% ≤ substrate protein remaining % ≤ 80%) | A ("A" is defined as 0% ≤ substrate protein remaining % ≤ 80%) | B ("B" is defined as 80%< substrate protein remaining %≤ 100%)
O=C1CCN(N2Cc3cc(CN4CC=C(c5cncc(Cl)c5Cl)CC4)ccc3C2=O)C(=O)N1 [GT-06393, 1-(5-((4,5-dichloro-3',6'-dihydro-[3,4'-bipyridin]-1'(2'H)-yl)methyl)-1-oxoisoindolin-2-yl)dihydropyrimidine-2,4(1H,3H)-dione] | 500 to 1000 nM | B ("B" is defined as 80%< substrate protein remaining %≤ 100%) | A ("A" is defined as 0% ≤ substrate protein remaining % ≤ 80%) | A ("A" is defined as 0% ≤ substrate protein remaining % ≤ 80%) | A ("A" is defined as 0% ≤ substrate protein remaining % ≤ 80%) | A ("A" is defined as 0% ≤ substrate protein remaining % ≤ 80%) | A ("A" is defined as 0% ≤ substrate protein remaining % ≤ 80%)
O=C1CCN(N2Cc3cc(CN4CC=C(c5nccc(Cl)c5Cl)CC4)ccc3C2=O)C(=O)N1 [GT-06392, 1-(5-((3,4-dichloro-3',6'-dihydro-[2,4'-bipyridin]-1'(2'H)-yl)methyl)-1-oxoisoindolin-2-yl)dihydropyrimidine-2,4(1H,3H)-dione] | 300 to 500 nM | B ("B" is defined as 80%< substrate protein remaining %≤ 100%) | A ("A" is defined as 0% ≤ substrate protein remaining % ≤ 80%) | A ("A" is defined as 0% ≤ substrate protein remaining % ≤ 80%) | A ("A" is defined as 0% ≤ substrate protein remaining % ≤ 80%) | A ("A" is defined as 0% ≤ substrate protein remaining % ≤ 80%) | A ("A" is defined as 0% ≤ substrate protein remaining % ≤ 80%)
Cn1cc(C2=CCN(Cc3ccc4c(c3)CN(N3CCC(=O)NC3=O)C4=O)CC2)c2ccc(F)cc21 [GT-05167, 1-(5-((4-(6-fluoro-1-methyl-1H-indol-3-yl)-3,6-dihydropyridin-1(2H)-yl)methyl)-1-oxoisoindolin-2-yl)dihydropyrimidine-2,4(1H,3H)-dione] | 10 to 50 nM | A ("A" is defined as 0% ≤ substrate protein remaining % ≤ 80%) | A ("A" is defined as 0% ≤ substrate protein remaining % ≤ 80%) | A ("A" is defined as 0% ≤ substrate protein remaining % ≤ 80%) | A ("A" is defined as 0% ≤ substrate protein remaining % ≤ 80%) | A ("A" is defined as 0% ≤ substrate protein remaining % ≤ 80%) | B ("B" is defined as 80%< substrate protein remaining %≤ 100%)
O=C1CCN(N2Cc3cc(CN4CCC(N5CCc6cc(F)ccc65)CC4)ccc3C2=O)C(=O)N1 [GT-05165, 1-(5-((4-(5-fluoroindolin-1-yl)piperidin-1-yl)methyl)-1-oxoisoindolin-2-yl)dihydropyrimidine-2,4(1H,3H)-dione] | 500 to 1000 nM | B ("B" is defined as 80%< substrate protein remaining %≤ 100%) | B ("B" is defined as 80%< substrate protein remaining %≤ 100%) | A ("A" is defined as 0% ≤ substrate protein remaining % ≤ 80%) | A ("A" is defined as 0% ≤ substrate protein remaining % ≤ 80%) | B ("B" is defined as 80%< substrate protein remaining %≤ 100%) | B ("B" is defined as 80%< substrate protein remaining %≤ 100%)
O=C1CCN(N2Cc3cc(CN4CCN(c5ccc(Cl)cn5)CC4)ccc3C2=O)C(=O)N1 [GT-05127, 1-(5-((4-(5-chloropyridin-2-yl)piperazin-1-yl)methyl)-1-oxoisoindolin-2-yl)dihydropyrimidine-2,4(1H,3H)-dione] | 500 to 1000 nM | A ("A" is defined as 0% ≤ substrate protein remaining % ≤ 80%) | A ("A" is defined as 0% ≤ substrate protein remaining % ≤ 80%) | A ("A" is defined as 0% ≤ substrate protein remaining % ≤ 80%) | B ("B" is defined as 80%< substrate protein remaining %≤ 100%) | A ("A" is defined as 0% ≤ substrate protein remaining % ≤ 80%) | A ("A" is defined as 0% ≤ substrate protein remaining % ≤ 80%)

Reference: EP4722207A1, “OXOISOINDOLINYL-SUBSTITUTED TETRAHYDROPYRIMIDINEDIONE DERIVATIVE AND USE THEREOF” (Gluetacs Therapeutics (Shanghai) Co., Ltd., priority 2023, dated 2024)
